This passage reports knock-down efficiency results from US20260207649A1, “LSD1 INHIBITOR AND PRMT6 INHIBITOR FOR USE IN THE TREATMENT OF A DISEASE ASSOCIATED WITH GAIN-OF-FUNCTION OF ANDROGEN RECEPTOR (AR) AND/OR WITH OVEREXPRESSION OF AN AR COACTIVATOR” (FONDAZIONE TELETHON ETS(30%), priority 2022, published 2026).

The test system of this data set is PRMT6. Briefly: Lentiviral shRNA knock-down tested in motor-neuron cell lines. It is filed as cell-based. Particulars: lentiviral transduction of motor-neuron cell lines. The procedure:
Transgenes to express shRNA against PRMT6 (shPRMT6 #1, SEQ ID NO: 232 and shPRMT6 #2, SEQ ID NO: 233) and the corresponding scramble were cloned into lentiviral constructs (pLKO.1-puro).
HEK293T cells were transfected by calcium phosphate with lentiviral vectors together with pCMV-dR8.91 (Delta 8.9) plasmids containing gag, pol, and rev genes and VSV-G envelope plasmid. At 16 hours post-transfection, medium was replaced with fresh medium, and 24 hours later it was collected, centrifuged at 1000×g for 10 minutes (to pellet and thus remove any cellular debris), filtered through 0.45-μm pores, and stored at −80° C. in aliquots. To quantify viruses, 10 μL of viral particles were lysed for 10 minutes at room temperature by adding an equal volume of 2× lysis buffer [0.25% Triton X-100, 50 mM KCl, 100 mM Tris-HCl pH 7.4, 40% glycerol, and 0.8 U/μL RNase inhibitor (RiboLock, Fermentas)]. Lysates were added to a single-step RT-PCR assay with 3.5 nM MS2 RNA (Roche) as template, 500 nM of each primer and hot-start Taq (Truestart Hotstart Taq, Fermentas), all in 20 mM Tris-Cl pH 8.3, 5 mM (NH4)2SO4, 20 mM KCl, 5 mM MgCl2, 0.1 mg/ml BSA, 1/20,000 SYBR Green I (Invitrogen, #S7563), and 200 µM dNTPs. […]

As to “shPRMT6 #1: shRNA against PRMT6 in lentiviral construct pLKO.1-puro, caccggcauucugagcaucuu (CACCGGCAUUCUGAGCAUCUU)”, the knock-down efficiency result is “most efficient knock-down”.
